64 compounds from a melting point compilation (Tetko et al.; mined from patent text by program, amines drawn as free bases though some values may be those of a salt) can be followed below.

SMILES strings stand for the structures.

For `COC(=O)c1cc2cc(-c3ccc(OC)cc3)ccc2o1`, the melting point lay within 160 to 162 °C.

Consider `O=C(O)C1=Cc2cc3occ(-c4ccc(Br)cc4)c3cc2OC1C(F)(F)F` (centres undefined), for which the melting point was above 250 °C.

In the case of `CCCCc1nc2cccc(C(=O)OC)c2n1Cc1ccc2nc(-c3ccccc3-c3nnn[nH]3)n(C)c(=O)c2c1`, the melting point was 240 to 242 °C.

For the compound `CCOc1ccc(C(=O)Nc2ccccc2)cc1NC(=S)Nc1cc(Cl)cc(Cl)c1`, the melting point lay within 201 to 202 °C.

In turn, `O=C(NCCSCc1cccc(F)c1)c1c(Cl)cccc1Cl` displayed a melting point of 70 to 72 °C.

As for `Nc1ncc(-c2ccccc2)nc1Sc1ccc(Cl)cc1`, the melting point lay in the range of 158 to 160 °C.

In turn, `CC(C)CCSC1=C(O)CC(C)(C)CC1=O` returned a melting point of 59 to 61 °C.

On to `O=C1N(Cc2ccncn2)c2ccccc2C12COc1cc3c(cc12)CCO3` (centres undefined), for which the melting point lay in the range of 158 to 160 °C.

As for `O=C(OCc1ccccc1)c1cc2ccccc2[nH]1`, the melting point worked out at 136 °C.

Turning to `O=C(O)CCCC#CCc1c(-c2ccccc2)nc(-c2ccccc2)n1-c1ccccc1`, the melting point was 144 to 145 °C.

For the compound `CCOC(=O)c1cc(-c2ccc(OCCO[Si](C)(C)C(C)(C)C)cc2)n(-c2ccc(OC)cc2)n1`, the melting point was 86 to 87 °C.

`CCC1(CCCCN2CCN(c3ccccn3)CC2)C(=O)Nc2ccc(Cl)cc21` (centres undefined) showed a melting point of 154 to 156 °C.

As for `OCCOc1nc2ncnc(NCc3ccco3)c2[nH]1`, the melting point was in the range of 182 to 184 °C.

On to `Cc1c(Br)csc1C#N`, for which the melting point is 54 to 58 °C.

The compound `CCOc1nn(C(=O)NS(=O)(=O)c2c(Cl)cccc2SC)c(=O)n1C` had a melting point of 144 °C.

`COC(=O)c1ccc(Br)cc1CBr`: the melting point was in the range of 78 to 79 °C.

The compound `CC=CC(Oc1nc(OC)cc(OC)n1)C(C)(C)C#N` (centres undefined) had a melting point of 91 to 92 °C.

With `CC(=O)n1nc(-c2cc(C(C)(C)C)c(O)c(C(C)(C)C)c2)c2cccnc21`, the melting point was 169 to 171 °C.

The compound `Cc1cc(Br)c2c(c1)C(C(=O)O)c1ccccc1CO2` (centres undefined) gave a melting point of 196 to 197 °C.

In turn, `S=C1Nc2ccccc2C1(c1c[nH]c2ccccc12)C1CNc2ccccc21` (centres undefined) displayed a melting point above 260 °C.

Regarding `Clc1ccc2c(c1)[nH]c1cc(Cl)ccc12`, the melting point lay within 188 to 189 °C.

On to `CC(C=O)n1nnc2ccc(Oc3cc(F)c(C(F)(F)F)c(Cl)c3)cc21` (centres undefined), for which the melting point is 107 to 108 °C.

`Cc1cccc2c1N(CC(=O)C1CC1)C(=O)C(NC(=O)Nc1cccc(-c3nnn[nH]3)c1)N=C2C1CCCCC1` (centres undefined) registered a melting point of 227 to 233 °C.

The compound `CCCNC(=S)NCCc1cccc2ccc(OC)cc12` showed a melting point of 95 to 97 °C.

Turning to `CCN1C(=O)C(C)(C)C(=O)N(C)c2cc(CN(CCn3ccc4oc(C)cc4c3=O)Cc3ccncc3)ccc21`, the melting point was in the range of 143 to 145 °C.

The compound `Cc1ncc2ccc(-c3ccc(F)cc3)nc2n1` showed a melting point above 200 °C.

Compound `Cc1ccc(S(=O)(=O)N2[C@@H](CCC(N)=O)CC[C@H]2c2ccc(F)cc2)cc1` (racemic) registered a melting point of 136 °C.

In turn, `OCc1cc2ccccc2c(-c2ccnc(Br)c2)c1CO` came in with a melting point of 108 to 109 °C.

The compound `NC(=S)NNc1ccc(Cl)cc1` displayed a melting point of 200 to 201 °C.

The compound `Fc1ccc(CSc2nc3cnccc3[nH]2)cc1F` yielded a melting point of 147 to 149 °C.

Regarding `CC(C)(C)c1cc(SCCOCC(=O)O)cc(C(C)(C)C)c1O`, the melting point was 86 °C.

As to `Cc1nc(C)n(-c2cc([C@@H]3C[C@H]3c3nc4ccccc4n3C)nc(C#N)n2)n1` (relative stereo), the melting point lay in the range of 229 to 231 °C.

For `C=CCOC(=O)c1cccc(NC(=O)NCC(=O)N(CC(=O)OC(C)(C)C)c2ccccc2C(=O)c2ccccc2)c1`, the melting point was 105 to 107 °C.

On to `CCn1c(=O)c(-c2c(Cl)cccc2Cl)cc2cnc(N)nc21`, for which the melting point lay within 207 to 209 °C.

In turn, `CC1CC(C)CN(C(=O)C2Cc3ccccc3N2)C1` (centres undefined) displayed a melting point of 131 to 133 °C.

`Nc1cc(Sc2cccc3cnccc23)c(F)cc1[N+](=O)[O-]` had a melting point of 217 to 220 °C.

Compound `COc1ccc(C(=O)Nc2ccccc2/C=C/c2ccnc(C)c2)cc1` came in with a melting point of 183 to 184 °C.

`Nc1ccc(-c2cc(OCC(=O)N3CCOCC3)c3c(C(F)(F)F)cccc3n2)cc1` came in with a melting point of 174 °C.

The compound `C=CCNCC(O)COc1cccc2c1CC(=O)N2` (centres undefined) displayed a melting point of 124 to 127 °C.

For `CCOC(=O)NN=Cc1nc[nH]c1C`, the melting point lay within 195 to 203 °C.

As to `CC1(C)COC(c2ccc(F)cc2-c2ccc3c(c2)CCC(Cc2ccccc2)C3=O)=N1` (centres undefined), the melting point lay within 114 to 115 °C.

For `O=C(c1nc2ccccc2s1)C1CCN(CCc2ccccc2)CC1`, the melting point lay within 108 to 110 °C.

Compound `O=[N+]([O-])c1cc(I)ccc1Nc1cccc(-c2ccccn2)c1` came in with a melting point of 195 to 196 °C.

The compound `CCCN(C(N)=S)C(c1ccncc1)C1CC1` (centres undefined) yielded a melting point of 171 °C.

Compound `CC(C)c1cc(C(C)C)c(CC(=O)NS(=O)(=O)Oc2c(C(C)C)cc(C=CC#N)cc2C(C)C)c(C(C)C)c1` came in with a melting point of 157 to 160 °C.

Consider `O=C(NCc1cccnc1)c1ccc2n1Cc1ccccc1N(C(=O)c1ccc(-c3ncccn3)cc1)C2`, for which the melting point fell in the range of 234 to 236 °C.

Consider `CN1CCCC(COc2ccc(/C=c3\[nH]c(=O)/c(=C/c4ccccc4)[nH]c3=O)nc2)C1` (centres undefined), for which the melting point lay in the range of 326 to 328 °C.

Consider `CCOC(=O)C1=C(C)NC(C)=C(C(=O)OC(C)C)C1c1cccc2ccccc12` (centres undefined), for which the melting point came to 167 °C.

Take `CC(=O)OC1CCN(c2ccc3[nH]c(=O)ccc3c2)CC1`: the melting point was in the range of 245 to 250 °C.

In turn, `CCOCc1nc2c(N)nc3cc(OCc4cscn4)ccc3c2n1CC(C)(C)O` showed a melting point of 190 to 191 °C.

As for `CC(OC(C)(C)C(=O)O)c1cc(-c2ccc(Cl)cc2)no1` (single isomer, unassigned; (+)), the melting point fell in the range of 120 to 124 °C.

Turning to `CCc1nc2ccccc2n(-c2ccc(Cl)cc2)c1=O`, the melting point was 163 to 165 °C.

Compound `Nc1ncc2ncn(OC(CO)CCO)c2n1` (centres undefined) had a melting point of 178 to 179 °C.

`CC(=O)Nc1ccc(C(=O)SC[C@@H](C)C(=O)N2CSC[C@H]2C(=O)O)cc1`: the melting point is 206 to 207 °C.

Consider `COc1ccc(-c2nc(N3CCOCC3)c3c(C)c(C#N)sc3n2)cc1`, for which the melting point lay in the range of 204 to 206 °C.

Consider `Nc1ccccc1C(=O)C1CCCCC1`, for which the melting point lay in the range of 74 to 75 °C.

Regarding `CC(N)Cc1cccc(N)c1` (centres undefined), the melting point is 78 to 79 °C.

In turn, `C[C@H](N)Cn1ncc2ccc3oc(C(=O)NCC4(O)CC4)cc3c21` gave a melting point of 77 to 79 °C.

`NS(=O)C12CC3CC(CC(C3)C1)C2` (centres undefined) yielded a melting point of 139 to 141 °C.

With `CNCCn1nc(N)c2cc3cc(OC)ccc3nc21`, the melting point is 142 to 144 °C.

`c1cnc2ccc(Cn3nnc4ccc(-c5cn[nH]c5)nc43)cc2c1` displayed a melting point of 215 to 218 °C.

Consider `CCCCC1OC(=O)c2cc(NC(=O)CCC(=O)O)ccc21` (centres undefined), for which the melting point is 163 to 165 °C.

`O=C1CCC(c2c[nH]c3ccc(F)cc23)CC1` displayed a melting point of 112 to 114 °C.

On to `O=c1[nH]nc2ccc(OCCCN3CCC(OC(c4ccccc4)c4ccccc4)CC3)nn12`, for which the melting point lay within 209 to 211 °C.

A word on the melting point: it is the temperature, or range, at which the solid turns liquid.
